Assay: recombinant barcode read abundance after kanamycin selection (control-corrected) (log10(CPM+1)); higher = more efficient recombination; sequences stand for … in AGTGCAGAGAAAATCGGCCAGTTTTCTCTGCCTGCAGTCCGCATGCCGT…AGATTTATGCAGCGGACTGCCTTTCTCCCAAAGTGATAAACCGGACAGTATCATGGACCGGTTTTCCCGGTAATCCGTATTTGCAAGGTTGGTTTCACT; site = the 11-nt target
Summary of the method: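 A vector carrying a T7-inducible recombinase and the last 73 bp of the bridge RNA received, by Gibson cloning, oligos encoding a promoter, target, barcode and the first 104 bridge RNA bases under J23119. The pooled constructs entered E. coli together with a donor plasmid by electroporation. Selection used chloramphenicol/ampicillin/kanamycin with 0.1 mM IPTG, with chloramphenicol/ampicillin LB agar as the control, each in two replicates. Recombination efficiency is the averaged, control-corrected counts-per-million of barcodes at recombinant junctions, reported as log10(CPM+1).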
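Also: IS621 recombinase and bridge RNA in Escherichia coli cells.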

Row | Sequence | recombinant barcode read abundance (log10)
1 | CTAGACTCTTGGGTTCTAACCTGTTGCTA (site CTAGACTCTAA) | 0.587
2 | CTAGACTCTTGGGTTCTAACCTGTTGCTA (site CTAGACTCTCA) | 0.234
3 | CTAGACTCTTGGGTTCTAACCTGTTGCTA (site CTAGACTCTGA) | 0.117
4 | CTAGACTCTTGGGTTCTAACCTGTTGCTA (site CTAGACTCTTA) | 2.7
5 | CTAGAGTCTTGGGTTCTAACCTGTTGCTT (site CTAGAGTCTAA) | 2.66
6 | CTAGAGTCTTGGGTTCTAACCTGTTGCTT (site CTAGCGTCTAA) | 0.0496
7 | CTAGATTCTTGGGTTCTAACCTGTTGCCT (site CAAGATTCTAG) | 0.167
8 | CTAGATTCTTGGGTTCTAACCTGTTGCCT (site CCAGATTCTAG) | 0.116
9 | CTAGATTCTTGGGTTCTAACCTGTTGCCT (site CGAGATTCTAG) | 0.077
10 | CTAGATTCTTGGGTTCTAACCTGTTGCCT (site CTAGATTCTAG) | 1.49
11 | CTAGCCGCTTGGGTTCTAACCTGTTGCTT (site AGCCTATCTTG) | 0.119
12 | CTAGCCGCTTGGGTTCTAACCTGTTGCTT (site CTAGCCGCTAA) | 1.03
13 | CTAGCGGCTTGGGTTCTAACCTGTTGCAG (site CTAGCGGCTCT) | 2.05
14 | CTAGCGGCTTGGGTTCTAACCTGTTGCAG (site CTAGCTCCTCT) | 0.0734
15 | CTAGGCCCTTGGGTTCTAACCTGTTGCCT (site CTAGGCCCTAA) | 0.584
16 | CTAGGCCCTTGGGTTCTAACCTGTTGCCT (site CTAGGCCCTAC) | 2.1
17 | CTAGGCCCTTGGGTTCTAACCTGTTGCCT (site CTAGGCCCTAG) | 0.184
18 | CTAGGCCCTTGGGTTCTAACCTGTTGCCT (site CTAGGCCCTAT) | 0.506
19 | CTAGGCCCTTGGGTTCTAACCTGTTGCTT (site CTAGGCCCTAA) | 0.563
20 | CTAGGCCCTTGGGTTCTAACCTGTTGCTT (site CTAGGCCCTAC) | 0.18
21 | CTAGGCCCTTGGGTTCTAACCTGTTGCTT (site CTAGGCCCTAG) | 0.229
22 | CTAGGCCCTTGGGTTCTAACCTGTTGCTT (site CTAGGCCCTAT) | 0.939

Row | Sequence | recombinant barcode read abundance (log10)
23 | CTAGTACCTTGGGTTCTAACCTGTTGCCT (site CTAGTACCTAG) | 1.43
24 | CTAGTACCTTGGGTTCTAACCTGTTGCCT (site TTAGTAACTAG) | 0.0602
25 | CTAGTAGCTTGGGTTCTAACCTGTTGCGG (site CTAGTAGCTAC) | 0.553
26 | CTAGTAGCTTGGGTTCTAACCTGTTGCGG (site CTAGTAGCTCC) | 1.56
27 | CTAGTCCCTTGGGTTCTAACCTGTTGCCG (site CTAGTCCCTCG) | 1.79
28 | CTAGTCCCTTGGGTTCTAACCTGTTGCCG (site TTAGTCCCTCG) | 0.176
29 | CTAGTGGCTTGGGTTCTAACCTGTTGCCG (site CTAGTGGCTCG) | 1.3
30 | CTAGTGGCTTGGGTTCTAACCTGTTGCCG (site TCGTCACCTAT) | 0.0446
31 | CTATAGACTTGGGTTCTAACCTGTTGCCT (site CTATAGACTAG) | 1.11
32 | CTATAGACTTGGGTTCTAACCTGTTGCCT (site CTATCGACTAG) | 0.163
33 | CTATAGACTTGGGTTCTAACCTGTTGCCT (site CTATGGACTAG) | 0.475
34 | CTATAGACTTGGGTTCTAACCTGTTGCCT (site CTATTGACTAG) | 0.317
35 | CTATCCACTTGGGTTCTAACCTGTTGCCT (site CTATCCACTAG) | 1.63
36 | CTATCCACTTGGGTTCTAACCTGTTGCCT (site CTGTCGACTAG) | 0.873
37 | CTATGACCTTGGGTTCTAACCTGTTGCCT (site CTATGACCTAA) | 0.124
38 | CTATGACCTTGGGTTCTAACCTGTTGCCT (site CTATGACCTAC) | 0.23
39 | CTATGACCTTGGGTTCTAACCTGTTGCCT (site CTATGACCTAG) | 1.9
40 | CTATGACCTTGGGTTCTAACCTGTTGCCT (site CTATGACCTAT) | 0.104
41 | CTATGTGCTTGGGTTCTAACCTGTTGCTT (site CTATGTGCTAA) | 0.337
42 | CTATGTGCTTGGGTTCTAACCTGTTGCTT (site CTATGTGCTAC) | 0.37
43 | CTATGTGCTTGGGTTCTAACCTGTTGCTT (site CTATGTGCTAG) | 1.1

From the supplement of paper PMC11208160
